2 molecules from publication PMC9408991, “Antitumor Effects of a New Retinoate of the Fungal Cytotoxin Illudin M in Brain Tumor Models” (International Journal of Molecular Sciences, 2022) can be followed below.

Structures are written as SMILES. Where two headings read alike, the source gives them in different places.

In series [1] the test system is primary astrocytes. Nature of the series: MTT cell viability assay, primary astrocytes. Format: cell-based. The following applies: Mus musculus, Astrocyte, read-out: Inhibitory concentration IC50. The method, then: (§1) NE-4C cells derived from the anterior brain vesicles of p53-deficient 9-day-old mouse embryos were maintained in Minimum Essential Medium (MEM; Sigma Aldrich, Taufkirchen, Germany) supplemented with 5% fetal calf serum (FCS; Invitrogen-Gibco, Carlsbad, CA, USA), 4 mM glutamine (Sigma-Aldrich, Taufkirchen, Germany) and 40 ug/mL gentamycin (Chinoin, Budapest, Hungary). For maintenance, subconfluent cultures were regularly split by trypsinization (0.05 w/v% trypsin in PBS) into poly-L-lysine-coated Petri dishes. Primary astrocytes were isolated from whole brains of neonatal (P0-P3) mice, as described earlier. In brief, meninges were removed, and the tissue pieces were subjected to enzymatic dissociation, using 0.05% w/v trypsin and 0.05% w/v DNase for 10 min at room temperature. The cells were plated onto poly-L-lysine coated plastic surfaces and grown in MEM supplemented with 10% fetal calf serum, 4 mM glutamine and 40 ug/mL gentamycin. Primary neuronal cultures were prepared from embryonic (E15–E16) mouse (CD1) forebrains, as described earlier. In brief, cell suspensions were prepared by mechanical dissociation over a nylon mesh with a pore diameter of 40–42 μm. The cells were seeded at 10^5 cells/cm^2 density onto PLL-coated surfaces. The cultures were maintained in MEM supplemented with 5% FCS, 4 mM glutamine, 40 µg/mL gentamicin and 2.5 μg/mL amphotericin B (Sigma). In co-culture experiments, U87 glioma cells were seeded onto established neuronal cultures at DIV3 in a 25,000 cell/cm^2 density.
(§2) Non-GBM cells (5 × 10^4 cells/mL, 100 µL/well) were grown in 96-well plates for 24 h. […] After the addition of 12.5 µL of a 0.5% MTT solution in PBS, the cells were incubated for 3 h at 37 °C so that the water-soluble MTT could be converted to formazan crystals. Then, the plates were centrifuged (300× g, 5 min, 4 °C), the medium withdrawn, and the formazan dissolved in 25 µL of DMSO containing 10% sodium dodecylsulfate (SDS) and 0.6% acetic acid for at least 2 h at 37 °C. In the case of the HL60 cells, after 2 h, the precipitate of formazan crystals was redissolved in a 10% solution of SDS in DMSO containing 0.6% acetic acid.
For orientation: Formazan colour is commonly taken as a measure of viable cells.

Series [2] relates to NE-4C neuroectodermal stem cells. Nature of the series: MTT cell viability assay, NE-4C neuroectodermal stem cells. Conditions: Mus musculus, read-out: Inhibitory concentration IC50. Format: cell-based. Here is the method:
as §1, §2

Series [3] relates to non-neural cancer cell lines. Briefly: MTT assay, summary over non-neural cancer cell lines. Conditions: with the exception of MCF-7^+Topo. It counts as cell-based, human. The method, then: Non-GBM cells (5 × 10^4 cells/mL, 100 µL/well) were grown in 96-well plates for 24 h. Then, they were treated with various concentrations of the test compounds or vehicle (DMSO, or EtOH) for 72 h at 37 °C. After the addition of 12.5 µL of a 0.5% MTT solution in PBS, the cells were incubated for 3 h at 37 °C so that the water-soluble MTT could be converted to formazan crystals. Then, the plates were centrifuged (300× g, 5 min, 4 °C), the medium withdrawn, and the formazan dissolved in 25 µL of DMSO containing 10% sodium dodecylsulfate (SDS) and 0.6% acetic acid for at least 2 h at 37 °C. In the case of the HL60 cells, after 2 h, the precipitate of formazan crystals was redissolved in a 10% solution of SDS in DMSO containing 0.6% acetic acid.

A short description of series [4]: Stability in cell medium (DMEM) by HPLC. Format: physicochemical. Conditions: for Detected compound 2 in medium / Detected free 1 in the sample of 2 / Detected free retinoic acid in the sample of 2: sample of 2 in DMEM. The method, then:
The stability of compound 2 in medium (DMEM) was investigated for the indicated times (Table S1). For the preparation of the calibration samples, stock solutions of the test compounds (1 mg /mL) in MeCN were initially made. The sample was diluted to 0.2 mg/mL in a mixture of MeCN/H2O (4:1), whereof 20 µL were taken and injected into the column. For HPLC analysis, a Prontosil 120-5-C18 ace EPS 5 µm column was applied, and MeCN/H2O + 0.1 % glacial acetic acid was used as eluent. Chromatography was run from 7030 to 9010 within 3 […]
Table S1. Stability of compound 2 in medium.
Sample Detected Compounds (in µM)

Series [5] deals with NE-4C neural stem cells. Nature of the series: Neuronal differentiation of NE-4C neural stem cells (β-tubulin III staining). It counts as cell-based, mouse. The method, then: NE-4C cells and their differentiated progeny neurons can be immunohistochemically distinguished by the presence of β-tubulin III only in the latter (Figure 3).
Astroglia cells grown on poly-L-lysine-coated glass cover slips were fixed with 4% paraformaldehyde in PBS for 20 min at room temperature and then permeabilized with Triton X-100 (0.1% v/v in PBS; 5 min). Nonspecific antibodies were blocked by incubation with 3% FBS in PBS (room temperature, 1 h). α-GFAP antibody (rabbit, DAKO) was used in a dilution of 1:2000 and was visualized by anti-rabbit IgG Alexa 594 (1:1000). DAPI (4′,6-diamidino-2-phenylindole) was used for nuclei staining. Fluorescence images were captured manually on a Zeiss Axiovert 200 M microscope fitted with 20- to 60-fold zoom and a Zeiss AxioCam MRm digital camera. Further applied antibodies were tubulin III (Sigma T5076), used at a dilution of 1:1000, and Annexin V. Cy3.18 (Sigma A4963).

Series [6] relates to embryonal neuronal cells. Briefly: Long-term development of embryonal neuronal cell cultures. It counts as cell-based, mouse. Conditions: 1 µM, 3, 6 or 8 days. The method, then: as §1, with “In co-culture experiments, U87 glioma cells were seeded onto established neuronal cultures at DIV3 in a 25,000 cell/cm^2 density.” left out

With `CC1=C(/C=C/C(C)=C/C=C/C(C)=C/C(=O)O[C@@H]2C3=C(C)C4(CC4)[C@@](C)(O)C(=O)C3=CC2(C)C)C(C)(C)CCC1` [Compound 2, illudin M retinoate], the IC50 was found to be 45 ± 2 µM in series [1] (24 h exposure), 33 ± 4 µM in series [1] (48 h exposure), 7 ± 3.2 µM in series [2] (24 h exposure) and 2 ± 1.2 µM in series [2] (48 h exposure). In addition, the “fold less efficacious than 1” value in series [3] is 100 fold. Also, the “stability in cell medium” value in series [4] (cell medium) is given as “high stability”. For the same molecule, the “Detected compound 2 in medium” value in series [4] (0 h) was 3.92 µM; in series [4] (20 h), 3.98 µM; in series [4] (48 h) it was 3.85 µM; in series [4] (144 h), 3.94 µM. Besides, the “Detected free 1 in the sample of 2” value in series [4] (0 h), in series [4] (20 h), in series [4] (48 h) and in series [4] (144 h) was less than 0.01 µM in each case. Further, the “Detected free retinoic acid in the sample of 2” value in series [4] (0 h), in series [4] (20 h), in series [4] (48 h) and in series [4] (144 h) was less than 0.01 µM each time. In series [5] (10 nM, β-tubulin III staining), the “differentiation of NE-4C stem cells to neurons” value is reported as “did not elicit differentiation”. The “neuronal differentiation of NE-4C neural stem cells” value in series [5] (concentrations as high as 1 µM) was “did not induce neuronal differentiation”. The “development of neuronal cells” value in series [6] is reported as “developed normally”.
For `CC1=C2C(=CC(C)(C)[C@@H]2O)C(=O)[C@](C)(O)C12CC2` [Compound 1, illudin M], the IC50 is 1.5 ± 0.4 µM in series [1] (24 h exposure), 0.2 ± 0.03 µM in series [1] (48 h exposure), 0.4 ± 0.1 µM in series [2] (24 h exposure) and 0.05 ± 0.02 µM in series [2] (48 h exposure).
